# Tests used:
# Assay in all cases: Microbial challenge testing in BPW
# Format in all cases: cell-based
# Conditions in all cases: BPW, w/v % in label, average of replicates
# [1] = test system: Aeromonas sp.
# Outline: (§1)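 Buffered peptone water (pH 7.0) with 1% (w/v) dextrose was spiked with test material (w/v %) and challenged to a final 10^5 to 10^6 cfu/mL at time zero. Substrates were incubated at 35° C.±2° C. for 14 days, then at ambient room temperature. Broth-alone tubes served as controls.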
# [2] = test system: Bacillus subtilis
# Outline: as §1
# [3] = test system: Burkholderia cepacia
# Outline: as §1
# [4] = test system: Escherichia coli
# Outline: as §1
# [5] = test system: Proteus vulgaris
# Outline: as §1
# [6] = test system: Pseudomonas aeruginosa
# Outline: as §1
# [7] = test system: Staphylococcus aureus
# Outline: as §1
# [8] = test system: Staphylococcus epidermidis
# Outline: as §1
# [9] = test system: Streptococcus mutans
# Outline: as §1
smiles,measurement,setting,value
"O=C([O-])CN(CCN(CC(=O)O)CC(=O)O)CC(=O)[O-].[Na+].[Na+] [EDTA, ethylenediaminetetraacetic acid disodium salt]","Grade code, Aeromonas sp, 3 Days",[1]; 3 days incubation,"5 (More than 10,000 colonies estimated (thus >100,000 cfu/mL))"
same,"Grade code, Aeromonas sp, 14 Days",[1]; 14 days incubation,"4 (1001 to 10,000 colonies (thus 10,000 cfu/mL to 100,000 cfu/mL))"
same,"Grade code, Aeromonas sp, 30 Days",[1]; 30 days incubation,"4 (1001 to 10,000 colonies (thus 10,000 cfu/mL to 100,000 cfu/mL))"
same,"Grade code, B. subtilis, 3 Day",[2]; 3 days incubation,"4 (1001 to 10,000 colonies (thus 10,000 cfu/mL to 100,000 cfu/mL))"
same,"Grade code, B. subtilis, 14 Day",[2]; 14 days incubation,"4 (1001 to 10,000 colonies (thus 10,000 cfu/mL to 100,000 cfu/mL))"
same,"Grade code, B. subtilis, 30 Days",[2]; 30 days incubation,"4 (1001 to 10,000 colonies (thus 10,000 cfu/mL to 100,000 cfu/mL))"
same,"Grade code, B. cepacia, 3 Days",[3]; 3 days incubation,"4 (1001 to 10,000 colonies (thus 10,000 cfu/mL to 100,000 cfu/mL))"
same,"Grade code, B. cepacia, 14 Days",[3]; 14 days incubation,"4 (1001 to 10,000 colonies (thus 10,000 cfu/mL to 100,000 cfu/mL))"
same,"Grade code, B. cepacia, 30 Days",[3]; 30 days incubation,"4 (1001 to 10,000 colonies (thus 10,000 cfu/mL to 100,000 cfu/mL))"
same,"Grade code, E. coli, 3 Day",[4]; 3 days incubation,"5 (More than 10,000 colonies estimated (thus >100,000 cfu/mL))"
same,"Grade code, E. coli, 14 Day",[4]; 14 days incubation,"5 (More than 10,000 colonies estimated (thus >100,000 cfu/mL))"
same,"Grade code, E. coli, 30 Day",[4]; 30 days incubation,"5 (More than 10,000 colonies estimated (thus >100,000 cfu/mL))"
same,"Grade code, P. vulgaris, 3 Days",[5]; 3 days incubation,"5 (More than 10,000 colonies estimated (thus >100,000 cfu/mL))"
same,"Grade code, P. vulgaris, 13 Days",[5]; 13 days incubation,"4 (1001 to 10,000 colonies (thus 10,000 cfu/mL to 100,000 cfu/mL))"
same,"Grade code, P. vulgaris, 30 Day",[5]; 30 days incubation,"4 (1001 to 10,000 colonies (thus 10,000 cfu/mL to 100,000 cfu/mL))"
same,"Grade code, P. aeruginosa, 3 Days",[6]; 3 days incubation,"4 (1001 to 10,000 colonies (thus 10,000 cfu/mL to 100,000 cfu/mL))"
same,"Grade code, P. aeruginosa, 13 Days",[6]; 13 days incubation,"4 (1001 to 10,000 colonies (thus 10,000 cfu/mL to 100,000 cfu/mL))"
same,"Grade code, P. aeruginosa, 30 Days",[6]; 30 days incubation,"5 (More than 10,000 colonies estimated (thus >100,000 cfu/mL))"
same,"Grade code, S. aureus, 3 Day",[7]; 3 days incubation,"5 (More than 10,000 colonies estimated (thus >100,000 cfu/mL))"
same,"Grade code, S. aureus, 14 Day",[7]; 14 days incubation,"4 (1001 to 10,000 colonies (thus 10,000 cfu/mL to 100,000 cfu/mL))"
same,"Grade code, S. aureus, 30 Day",[7]; 30 days incubation,"4 (1001 to 10,000 colonies (thus 10,000 cfu/mL to 100,000 cfu/mL))"
same,"Grade code, S. epidermidis, 3 Days",[8]; 3 days incubation,"4 (1001 to 10,000 colonies (thus 10,000 cfu/mL to 100,000 cfu/mL))"
same,"Grade code, S. epidermidis, 13 Days",[8]; 13 days incubation,"3 (101 to 1000 colonies (thus 1000 to 10,000 cfu/mL))"
same,"Grade code, S. epidermidis, 30 Days",[8]; 30 days incubation,"4 (1001 to 10,000 colonies (thus 10,000 cfu/mL to 100,000 cfu/mL))"
same,"Grade code, S. mutans, 3 Day",[9]; 3 days incubation,"4 (1001 to 10,000 colonies (thus 10,000 cfu/mL to 100,000 cfu/mL))"
same,"Grade code, S. mutans, 13 Day",[9]; 13 days incubation,"4 (1001 to 10,000 colonies (thus 10,000 cfu/mL to 100,000 cfu/mL))"
same,"Grade code, S. mutans, 30 Days",[9]; 30 days incubation,"4 (1001 to 10,000 colonies (thus 10,000 cfu/mL to 100,000 cfu/mL))"
